According to paper PMC3199943, “Screening the MayBridge Rule of 3 Fragment Library for Compounds That Interact with the Trypanosoma brucei myo-Inositol-3-Phosphate Synthase and/or Show Trypanocidal Activity” (Molecular Biology International, 2011):
Where two headings read alike, the source gives them in different places.

Columns and labels:
TbINO1 = target: T1, TbINO1 (Trypanosoma brucei brucei, UniProt Q5QQ46); assay: biochemical; assay type: binding; details: inhibitor, 4 mM, positive control
T1 sequence (Q5QQ46 1-528): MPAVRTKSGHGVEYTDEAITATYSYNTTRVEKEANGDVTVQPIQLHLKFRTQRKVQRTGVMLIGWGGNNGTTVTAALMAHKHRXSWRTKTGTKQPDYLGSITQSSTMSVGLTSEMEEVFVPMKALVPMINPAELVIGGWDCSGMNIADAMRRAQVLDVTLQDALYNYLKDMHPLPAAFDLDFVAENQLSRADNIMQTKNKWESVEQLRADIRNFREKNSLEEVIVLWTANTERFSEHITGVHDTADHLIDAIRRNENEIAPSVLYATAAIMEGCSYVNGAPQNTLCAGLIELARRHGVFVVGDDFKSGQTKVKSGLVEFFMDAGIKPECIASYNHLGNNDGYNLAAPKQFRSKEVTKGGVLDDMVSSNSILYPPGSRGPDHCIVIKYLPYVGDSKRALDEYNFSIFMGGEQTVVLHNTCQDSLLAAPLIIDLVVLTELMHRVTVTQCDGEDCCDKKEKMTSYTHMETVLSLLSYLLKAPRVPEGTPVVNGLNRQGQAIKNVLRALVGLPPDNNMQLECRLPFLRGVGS

A549 cells = assay: Cytotoxicity against A549 cells, Alamar Blue; assay type: cell-based; details: Supplementary Table 1, compound 0.5 mM, percentage of controls (n=1); for viability at 500 µM: Homo sapiens, A549, 65 h
Summary of the method: (§1)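 Viability by Alamar Blue (5 h) after ~65 h drug treatment; seeding density 2 × 10^4 cells/well in DMEM supplemented with 10% FCS and 2 mM L-Glutamine.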

HeLa cells = assay: cells; details: for viability at 500 µM: Homo sapiens, HeLa, 65 h; for HeLa Cells Alamar Blue: Supplementary Table 1
Summary of the method: as §1

[1] = read-out: HeLa Cells Alamar Blue
[2] = compound 0.5 mM, percentage of controls, mean ± SD (n=3) or SE (n=2)

| SMILES | viability at 500 µM (A549 cells) [%] | viability at 500 µM (HeLa cells; [1]) [%] | further results |
| --- | --- | --- | --- |
| O=CC[C@@H](O)[C@H](O)[C@H](O)COP(=O)(O)O [2-deoxy-glucose-6-phosphate, reference compound] |  |  | TbINO1 Tm increase (TbINO1): 2.84 ± 0.47 °C |
| O=C(C1CCNCC1)N1CCCC1 [compound 469, 4‐piperidinyl(1‐pyrrolidinyl)methanone] | 86.1 | 99.5 ± 8.7 |  |
| Cn1nc(CO)cc1-c1cccs1 [compound 586, (1‐methyl‐5‐thien‐2‐yl‐1H‐pyrazol‐3‐yl)methanol] |  |  | A549 Cells Alamar Blue (A549 cells): 63.4 percentage of controls; HeLa Cells Alamar Blue (HeLa cells; [2]): 82 ± 15.2 percentage of controls |
| Nc1ccc(N2CCOCC2)cc1 [compound 435, 4‐morpholinoaniline] | 33.5 | 10.2 ± 6.9 |  |
| O=C(C1CCCNC1)N1CCCC1 (stereo not drawn) [compound 468, 3‐piperidinyl(1‐pyrrolidinyl)methanone] | 80.7 | 110 ± 13.3 |  |
| Nc1ccccc1-n1cccn1 [compound 260, 2‐(1H‐pyrazol‐1‐yl)aniline] | 97.3 | 98.1 ± 5.6 |  |
| Cc1ccccc1S(N)(=O)=O [compound 355, 2‐methylbenzene‐1‐sulfonamide] | 87.9 | 89.1 ± 16.6 |  |
| O=C(O)c1ccc(-c2ccccc2)s1 [compound 649, 5‐phenylthiophene‐2‐carboxylic acid] | 141 | 122 ± 18.7 |  |
| N#Cc1ccc(-c2ccccc2)nc1 [compound 456, 6‐phenylnicotinonitrile] | 67.1 | 33.9 ± 6.9 |  |
| NC(=O)NCc1ccc(F)cc1 [compound 334, N‐(4‐fluorobenzyl)urea] | 91.8 | 112 ± 4.7 |  |
| OCc1nccn1Cc1ccccc1 [compound 526, (1‐benzyl‐1H‐imidazol‐2‐yl)methanol] | 58 | 81 ± 13.3 |  |
| CC(C)(C)c1cccc(N)c1 [compound 179, 3‐(tert‐butyl)aniline] | 77.9 | 99.3 ± 14.7 |  |
| NCC1COc2ccccc2O1 (stereo not drawn) [compound 309, 2,3‐dihydro‐1,4‐benzodioxin‐2‐ylmethylamine] |  |  | A549 Cells Alamar Blue (A549 cells): 68.9 percentage of controls; HeLa Cells Alamar Blue (HeLa cells; [2]): 12.3 ± 8.8 percentage of controls |
| NCCc1cccc2c1OCC2 [compound 293, 2,3‐Dihydrobenzo[b]furan‐7‐ethylamine] | 19.8 | 10.8 ± 0.1 |  |
| COc1ccc(Cl)cc1N [compound 246, 5‐chloro‐2‐methoxyaniline] | 113 | 113 ± 16.7 |  |
| COC(=O)C1Cc2ccccc2N1 (stereo not drawn) [compound 422, methyl 2‐indolinecarboxylate] | 40.1 | 11.1 ± 5.7 |  |
| CCCCCSc1nnc[nH]1 [compound 357, 3‐(pentylthio)‐4H‐1,2,4‐triazole] | 45.3 | 64.5 ± 8.6 |  |
| CNCc1ccc(Cl)cc1 [compound 231, N‐(4‐chlorobenzyl)‐N‐methylamine] | 107 | 113 ± 3.7 |  |
| OCc1ccc(Oc2ccccc2)o1 [compound 540, (5‐phenoxy‐2‐furyl)methanol] | 57.7 | 13.7 ± 6.5 |  |
| Cn1ccc2cc(N)ccc21 [compound 158, 1‐methyl‐1H‐indol‐5‐amine] | 59.3 | 12.5 ± 9.1 |  |
| OCc1ccc(Oc2ccccc2)cc1 [compound 622, (4‐phenoxyphenyl)methanol] | 70.7 | 78.3 ± 15.4 |  |
| CNCc1cccc(N2CCCCC2)c1 [compound 656, N‐methyl‐N‐(3‐piperidin‐1‐ylbenzyl)amine] | 104 | 27.4 ± 13.3 |  |
| NCc1ccc2sccc2c1 [compound 294, 1‐benzothiophen‐5‐ylmethylamine] | 70.6 | 98.5 ± 13.1 |  |
| OCc1cccc(-c2ccncc2)c1 [compound 491, (3‐pyrid‐4‐ylphenyl)methanol] | 66.8 | 34.4 ± 13.8 |  |
| Nc1cccc(OC(F)(F)F)c1 [compound 419, 3‐(trifluoromethoxy)aniline] | 85 | 105 ± 11.1 |  |

| SMILES | viability at 500 µM (A549 cells) [%] | viability at 500 µM (HeLa cells; [1]) [%] | further results |
| --- | --- | --- | --- |
| Oc1nc2ccc(Cl)cc2o1 [compound 342, 6‐chloro‐1,3‐benzoxazol‐2‐ol] | 73.9 | 94.3 ± 6.5 |  |
| OCc1csc2ccc(Cl)cc12 [compound 608, (5‐chloro‐1‐benzothiophen‐3‐yl)methanol] | 63.8 | 78.3 ± 1 |  |
| O=C1CCC2CC1CCC2=O [compound 206, bicyclo[3.3.1]nonane‐2,6‐dione] | 42.1 | 80.8 ± 7.6 |  |
| O=C(O)C1CC2CC1CCC2O (stereo not drawn) [compound 345, 2‐hydroxybicyclo[3.2.1]octane‐6‐carboxylic acid] |  |  | A549 Cells Alamar Blue (A549 cells): 127 percentage of controls; HeLa Cells Alamar Blue (HeLa cells; [2]): 87.4 ± 13 percentage of controls |
| Cc1oc(-c2ccccc2)nc1CCO [compound 643, 2‐(5‐methyl‐2‐phenyl‐1,3‐oxazol‐4‐yl)ethan‐1‐ol] |  |  | A549 Cells Alamar Blue (A549 cells): 104.4 percentage of controls; HeLa Cells Alamar Blue (HeLa cells; [2]): 45.5 ± 7.7 percentage of controls |
| OCc1ccc(N2CCCC2)nc1 [compound 437, [6‐(1‐pyrrolidinyl)‐3‐pyridinyl]methanol] | 44.3 | 9.3 ± 4.8 |  |
| Oc1ccccc1N1CCOCC1 [compound 448, 2‐morpholinophenol] | 71.1 | 93.3 ± 6.7 |  |
| Cn1ccnc1CO [compound 34, (1‐methyl‐1H‐imidazol‐2‐yl)methanol] | 72.1 | 97 ± 14 |  |
| OCc1cc(-c2cccs2)on1 [compound 462, [5‐(2‐thienyl)‐3‐isoxazolyl]methanol] | 76.2 | 75.6 ± 5.9 |  |
| Cc1nn(-c2ccccc2)c(C)c1CO [compound 636, (3,5‐dimethyl‐1‐phenyl‐1H‐pyrazol‐4‐yl)methanol] |  |  | A549 Cells Alamar Blue (A549 cells): 94.9 percentage of controls; HeLa Cells Alamar Blue (HeLa cells; [2]): 73 ± 13.4 percentage of controls |
| OCC1COc2ccccc2C1 (stereo not drawn) [compound 300, 3,4‐dihydro‐2H‐chromen‐3‐ylmethanol] | 113 | 90 ± 16.3 |  |
| CNCc1scc2c1OCCO2 [compound 495, N‐(2,3‐dihydrothieno[3,4‐b][1,4]dioxin‐5‐ylmethyl)‐N‐methylamine] |  |  | A549 Cells Alamar Blue (A549 cells): 96.9 percentage of controls; HeLa Cells Alamar Blue (HeLa cells; [2]): 43.6 ± 17.7 percentage of controls |
| Cn1cccc1C(=O)O [compound 69, 1‐methyl‐1H‐pyrrole‐2‐carboxylic acid] | 70.2 | 95.3 ± 2.5 |  |
| OCc1ccc(CN2CCCCC2)cc1 [compound 669, [4‐(piperidin‐1‐ylmethyl)phenyl]methanol] | 121 | 93.2 ± 12.6 |  |
| Nc1nc(-c2ccc(O)cc2)cs1 [compound 565, 4‐(2‐amino‐1,3‐thiazol‐4‐yl)phenol] | 61.6 |  | viability at 500 µM (HeLa cells; read-out: HeLa Cells Alamar Blue, Supplementary Table 1, compound 0.5 mM, percentage of controls, mean ± SD (n=3) or SE (n=2)): 57.7 ± 17.7% |
| OCc1cccc(Cn2ccnc2)c1 [compound 527, [3‐(1H‐imidazol‐1‐ylmethyl)phenyl]methanol] |  |  | A549 Cells Alamar Blue (A549 cells): 69.2 percentage of controls; HeLa Cells Alamar Blue (HeLa cells; [2]): 80.7 ± 17.6 percentage of controls |
| Cc1ccc(C(=O)O)cc1Cl [compound 351, 3‐chloro‐4‐methylbenzoic acid] | 112 | 88.2 ± 17.9 |  |
| CSc1ccc(Cl)cc1N [compound 382, 5‐chloro‐2‐(methylthio)aniline] | 60.7 | 110 ± 13.3 |  |
| c1ccc(-c2cc[nH]n2)cc1 [compound 150, 3‐phenyl‐1H‐pyrazole] | 82 | 74.6 ± 17.7 |  |
| Nc1ccc(Cn2ccnc2)cc1 [compound 375, 4‐(1H‐imidazol‐1‐ylmethyl)aniline] | 90.7 | 88 ± 18.8 |  |
| Cc1nc(-c2ccccc2)ncc1CO [compound 623, (4‐methyl‐2‐phenyl‐5‐pyrimidinyl)methanol] |  |  | A549 Cells Alamar Blue (A549 cells): 85.4 percentage of controls; HeLa Cells Alamar Blue (HeLa cells; [2]): 66.5 ± 11.6 percentage of controls |
| COC(=O)c1ccc(N)c(C)c1 [compound 304, methyl 4‐amino‐3‐methylbenzoate] | 63.4 | 100 ± 8.9 |  |
| OCc1ccc2ncccc2c1 [compound 255, 6‐quinolinylmethanol] | 84 | 89.6 ± 6.8 |  |
| COC(=O)c1cc2ccccc2cn1 [compound 514, methyl isoquinoline‐3‐carboxylate] | 65.3 | 79.5 ± 14.3 |  |
| NCc1cc(Cl)cc(Cl)c1 [compound 405, 3,5‐dichlorobenzylamine] | 84.1 | 77.7 ± 13.9 |  |
